This is an account of results in patent US6235891A, “Glucocorticoid receptor agonist and decreased PP5” (South Alabama Medical Science Foundation, priority 1999, dated 2001).

One data set relates to A549 cells. Description: A549 cell proliferation (viable cell counts). In kind it is cell-based, human. The note with it: for Growth arrest: p53 wild-type A549 cells, dexamethasone single dose 100 nM, counted six days; for Decrease in proliferation compared to control: 300 nM. The procedure:
A549 cells were treated with ISIS 15534 or its scrambled control, ISIS 15521 at a concentration of 300 nM. Each day for the next 5 days, viable cells were counted.
A549 cells were seeded in 12-well tissue culture plates at about 50% confluence in DMEM containing 10% fetal bovine serum. The next day, cells were treated with the PP5-specific antisense oligonucleotide, ISIS 15534, or its scrambled control, ISIS 15521, at a final concentration of 300 nM as described in Example 7. On each of the following 5 days, cultures from three wells of each treatment gruop were trypsinized, collected and counted. Cell viability was determined by trypan blue staining, and the results given are the mean of three independent experiments.
A549 cells were seeded in 12-well tissue culture plates at a density of 5.0×10^4 cell/dish. On the next day, the cells were treated with PP5 specific antisense oligonucleotides (ISIS 15534) or the scrambled mismatch control (ISIS 15521) at a final concentration of 300 nM as described above. On each of the next five days, the cell cultures were treated briefly with trypsin to detach the cells from the dish (three wells from each test group). The number of cells was then determined by counting using a hemacytometer. Cell viability was determined with trypan blue staining. The percentage of viable cells was calculated by dividing the number of cells excluding trypan blue by the total number of cells, and the results are reported as the mean +/- SD of data collected from three independent experiments.
(§1) The antiproliferative effect of dexamethasone correlates with the presence of wild type p53 and the expression of p21^Waf1/Cip1 mRNA. Referring to FIGS. 1A-1C, the effect of dexamethasone on cell proliferation in p53-defective T-24 human bladder carcinoma, p53-null TR9 human fibroblasts (Webster et al. 1993; Maiyar et al. 1996), and p53 wild-type A549 human lung carcinoma cells was determined by treating cells in log-phase growth with a single dose of 100 nM dexamethasone and counting the number of cells in treated (.cndot.) and untreated (.box-solid.) cultures for six consecutive days following treatment. Each point represents the mean of triplicate dishes with error bars representing SE. Under similar conditions, treatment with ISIS 15534, a potent inhibitor of PP5 gene expression, inhibited growth in A459 but not T-24 or TR9 cells (Zuo et al. 1998). Referring to FIG. 1D, a comparison of p21^Waf1/Cip1 (p21) and serum glucocorticoid inducible protein kinase (sgk) mRNA levels in p53 competent (Lanes 3, 4) and p53 deficient (Lanes 1, 2, 5, 6) cell cultures after dexamethasone treatment is shown. Cell cultures in logphase growth were treated with 100 nM dexamethasone (+) or vehicle alone as a control (-). After 24 hours total mRNA was prepared and analyzed for p21 and sgk mRNA levels by Northern analysis.

In data set [1] the test system is p53-defective T-24 human bladder carcinoma cells. Put plainly: T-24 cell proliferation (cell counts). Format: cell-based. The note with it: p53-defective T-24 cells; dexamethasone single dose 100 nM, counted six days. The procedure: as §1
The subject of data set [2] is p53-null TR9 human fibroblasts. Put plainly: TR9 cell proliferation (cell counts). The settings on record: dexamethasone single dose 100 nM, counted six days. In kind it is cell-based. How it is done: as §1
For data set [3], the system named is p21^Waf1/Cip1 mRNA. Put plainly: Northern analysis of p21Waf1/Cip1 mRNA in A549 cells. In kind it is cell-based, human. The settings on record: dexamethasone 100 nM, 24 hours.
Method: The cells were harvested, and total RNA was extracted with TRIzol® Reagent according to the methods of the manufacturer. Total RNA (20 μg) was fractionated on 1% agarose gels containing formaldehyde and transferred to DURLON-UV nylon membranes (Stratagene). Following UV cross-linking, the filters were hybridized with a [α^32 P]probe for human PP5. […] Hybridization was performed in the presence of 50% formamide, 0.1 M Pipes, 0.8 M NaCl, 5×Denhardt's solution, 100 μg/ml denatured herring sperm DNA, 1×10^6 cpm/ml [α-^32 P]-labeled probe and 10% dextran sulfate at 42° C. for 16 hours. […] Quantification of hybridization signals was achieved by analysis of the scanned autoradiograms using the NIH Image program (ImagePC).
Referring to FIG. 1D, a comparison of p21^Waf1/Cip1 (p21) and serum glucocorticoid inducible protein kinase (sgk) mRNA levels in p53 competent (Lanes 3, 4) and p53 deficient (Lanes 1, 2, 5, 6) cell cultures after dexamethasone treatment is shown. […] After 24 hours total mRNA was prepared and analyzed for p21 and sgk mRNA levels by Northern analysis.
After 24 hours, 20 μg of total RNA was prepared and analyzed for serine/threonine protein phosphatase 5 (PP5), p21^Waf1/Cip1 (p21), and serum/glucocorticoid inducible kinase (sgk) mRNA levels. […]
Data set [4] concerns p21^Waf1/Cip1 mRNA. Description: Northern analysis of p21Waf1/Cip1 mRNA in T-24 cells. In kind it is cell-based, human. The note with it: dexamethasone 100 nM, 24 hours. The procedure:
(§2) The cells were harvested, and total RNA was extracted with TRIzol® Reagent according to the methods of the manufacturer. Total RNA (20 μg) was fractionated on 1% agarose gels containing formaldehyde and transferred to DURLON-UV nylon membranes (Stratagene). Following UV cross-linking, the filters were hybridized with a [α^32 P]probe for human PP5. The human PP5 cDNA probe was generated from the full length coding region of PP5 and [α^32 P]-dATP was labeled with DECAprime® DNA Labeling Kit according to the manufacturer's protocol. […] Quantification of hybridization signals was achieved by analysis of the scanned autoradiograms using the NIH Image program (ImagePC). […]
(§3) The antiproliferative effect of dexamethasone correlates with the presence of wild type p53 and the expression of p21^Waf1/Cip1 mRNA. Referring to FIGS. 1A-1C, the effect of dexamethasone on cell proliferation in p53-defective T-24 human bladder carcinoma, p53-null TR9 human fibroblasts (Webster et al. 1993; Maiyar et al. 1996), and p53 wild-type A549 human lung carcinoma cells was determined by treating cells in log-phase growth with a single dose of 100 nM dexamethasone and counting the number of cells in treated (.cndot.) and untreated (.box-solid.) cultures for six consecutive days following treatment. […] After 24 hours total mRNA was prepared and analyzed for p21 and sgk mRNA levels by Northern analysis.

Data set [5] concerns p21^Waf1/Cip1 mRNA. Put plainly: Northern analysis of p21Waf1/Cip1 mRNA in TR9 cells. Format: cell-based, human. The note with it: dexamethasone 100 nM, 24 hours. How it is done:
as §2, §3

The test system of data set [6] is GR luciferase reporter plasmid MMTV-luc. Description: MMTV-Luc glucocorticoid-responsive luciferase reporter assay in A549 cells. The note with it: 300 nM ISIS 15534 without dexamethasone, dexamethasone ≥100 nM for 2 hours. Format: cell-based, human. On the technique in general: A reporter such as luciferase makes a cellular process visible.
Method: Transfections and luciferase assays were conducted as described by Jones et al. (1996) using a mouse mammary tumor virus-luciferase reporter plasmid (MMTV-Luc). […] Briefly, A549 cells were transfected in serum-free medium with 1 μg MMTV-Luc plasmid DNA per 60 mm dish using 15 μg/ml Lipofectin. ODNs were added into the transfection media wherever applicable. After a 4-hour incubation, the medium was replaced with fresh complete culture medium, and the cells were cultured overnight. The cells were then treated with different amounts of dexamethasone for two hours. Cell extracts were prepared with reporter lysis buffer (Promega). […] Light production was measured for 20 seconds at 562 nm using a Monolight 2010 luminometer (Analytical Luminescence Lab., San Diego, Calif.). To control for difference in transfection efficiency, contransfections were performed with 1 μg of a plasmid encoding β-galactosidase controlled by the SV40 virus promoter (pSV-β-GAL). β-GAL activity was measured in 150 μl cell extracts using the β-Galactosidase Enzyme Assay System (Promega).
A549 cells were transiently transfected with GR luciferase reporter plasmid, MMTV-luc (Jones et al. 1996). […] The relative light units of the cell extract were calculated as an average of three independent experiments, performed in triplicate, and presented as relative luciferase activity with error bars indicating SD.
The next data set has as its system PP5 mRNA. Description: Northern blot analysis of PP5 mRNA expression in A549 cells. In kind it is cell-based, human. The note with it: dexamethasone 0-100 nM, 24 hours.

As for `C[C@@H]1C[C@H]2[C@@H]3CCC4=CC(=O)C=C[C@]4(C)[C@@]3(F)[C@@H](O)C[C@]2(C)[C@@]1(O)C(=O)CO` [dexamethasone, reference compound], the “A549 cell growth when expression of p53 is suppressed with ISIS 8345” value with A549 cells (dexamethasone ≥100 nM) was “partially inhibit”. The values for the Growth arrest entry (in the data set on A549 cells; in data set [1]; in data set [2]) were “produced growth arrest”, “neither ISIS 15534 nor dexamethasone induced” and “neither ISIS 15534 nor dexamethasone induced”, respectively. Besides, the “Expression of p21^Waf1/Cip1” value in the data set with p21^Waf1/Cip1 mRNA [3] is “concomitant increase in the expression of p21^Waf1/Cip1”; with p21^Waf1/Cip1 mRNA [4], “neither ISIS 15534 nor dexamethasone induced”; with p21^Waf1/Cip1 mRNA [5], “neither ISIS 15534 nor dexamethasone induced”. For the same molecule, the GR-reporter plasmid activation entry in data set [6] is on record as “more pronounced”. In addition, in the data set with PP5 mRNA, the “Expression of PP5 mRNA” value is “does not appear to change”.
Turning to “ISIS 15534: chimeric PP5 antisense oligonucleotide, P=O wings, P=S deoxy gap; GGGCCCTATTGCTTGAGTGG, SEQ ID NO: 12 (sugars by position and backbone not given here; chimeric, phosphodiester wings, phosphorothioate deoxy gap)”, the “Decrease in proliferation compared to control” value in the data set on A549 cells (day 2) came out at 55%; with A549 cells (day 3), 75%; with A549 cells (day 4) it was 89%; in the data set with A549 cells (day 5) it was 55%. In addition, the results for the Growth arrest result (in the data set with A549 cells; in data set [1]; in data set [2]) were “produced growth arrest”, “neither ISIS 15534 nor dexamethasone induced” and “neither ISIS 15534 nor dexamethasone induced”, respectively. In addition, the figures for the “Expression of p21^Waf1/Cip1” value with p21^Waf1/Cip1 mRNA [3], in the data set with p21^Waf1/Cip1 mRNA [4] and with p21^Waf1/Cip1 mRNA [5] were “concomitant increase in the expression of p21^Waf1/Cip1”, “neither ISIS 15534 nor dexamethasone induced” and “neither ISIS 15534 nor dexamethasone induced”, respectively. In addition, the GR-reporter plasmid activation entry in data set [6] is “induces glucocorticoid-mediated transcriptional activation”.
